Measured values as given in PubChem BioAssay AID1259407 (Chemical Carcinogenesis Research Information System (CCRIS), 2018).
Active and inactive are the calls of the source. How the calls were made is not given here.

Test system: CCRIS mutagenicity, Ames/micronucleus/aberration tests
Experiment: CCRIS mutagenicity studies
Conditions: Test System: AMES SALMONELLA TYPHIMURIUM
[1] = Strain/Indicator: TA98, Metabolic Activation: NONE, Method: PREINCUBATION
[2] = Strain/Indicator: TA100, Metabolic Activation: NONE, Method: PREINCUBATION
[3] = Strain/Indicator: TA98, Metabolic Activation: NONE, Method: STANDARD PLATE
[4] = Strain/Indicator: TA100, Metabolic Activation: NONE, Method: STANDARD PLATE

## Nc1ncnc2c1ncn2Cc1ccc([N+](=O)[O-])cc1
Strain/Indicator: TA98(1,8-DNP), Metabolic Activation: NONE, Method: PREINCUBATION
  mutagenic call: inactive; negative
Strain/Indicator: TA98(1,8-DNP), Metabolic Activation: RAT, LIVER, S-9, PCB, Method: PREINCUBATION
  mutagenic call: inactive; negative
Strain/Indicator: TA98(NR), Metabolic Activation: NONE, Method: PREINCUBATION
  mutagenic call: inactive; negative
Strain/Indicator: TA98(NR), Metabolic Activation: RAT, LIVER, S-9, PCB, Method: PREINCUBATION
  mutagenic call: inactive; negative
[1]
  mutagenic call: inactive; negative
Strain/Indicator: TA98, Metabolic Activation: RAT, LIVER, S-9, PCB, Method: PREINCUBATION
  mutagenic call: inactive; negative
Strain/Indicator: TA100(1,8-DNP), Metabolic Activation: NONE, Method: PREINCUBATION
  mutagenic call: inactive; negative
Strain/Indicator: TA100(1,8-DNP), Metabolic Activation: RAT, LIVER, S-9, PCB, Method: PREINCUBATION
  mutagenic call: inactive; negative
Strain/Indicator: TA100(NR), Metabolic Activation: NONE, Method: PREINCUBATION
  mutagenic call: inactive; negative
Strain/Indicator: TA100(NR), Metabolic Activation: RAT, LIVER, S-9, PCB, Method: PREINCUBATION
  mutagenic call: inactive; negative
[2]
  mutagenic call: inactive; negative
Strain/Indicator: TA100, Metabolic Activation: RAT, LIVER, S-9, PCB, Method: PREINCUBATION
  mutagenic call: inactive; negative
Strain/Indicator: YG1020, Metabolic Activation: NONE, Method: PREINCUBATION
  mutagenic call: inactive; negative
Strain/Indicator: YG1020, Metabolic Activation: RAT, LIVER, S-9, PCB, Method: PREINCUBATION
  mutagenic call: inactive; negative
Strain/Indicator: YG1021, Metabolic Activation: NONE, Method: PREINCUBATION
  mutagenic call: active; positive
Strain/Indicator: YG1024, Metabolic Activation: NONE, Method: PREINCUBATION
  mutagenic call: inactive; negative
Strain/Indicator: YG1024, Metabolic Activation: RAT, LIVER, S-9, PCB, Method: PREINCUBATION
  mutagenic call: inactive; negative
Strain/Indicator: YG1025, Metabolic Activation: NONE, Method: PREINCUBATION
  mutagenic call: inactive; negative
Strain/Indicator: YG1025, Metabolic Activation: RAT, LIVER, S-9, PCB, Method: PREINCUBATION
  mutagenic call: inactive; negative
Strain/Indicator: YG1026, Metabolic Activation: NONE, Method: PREINCUBATION
  mutagenic call: inactive; negative
Strain/Indicator: YG1026, Metabolic Activation: RAT, LIVER, S-9, PCB, Method: PREINCUBATION
  mutagenic call: inactive; negative
Strain/Indicator: YG1029, Metabolic Activation: NONE, Method: PREINCUBATION
  mutagenic call: inactive; negative
Strain/Indicator: YG1029, Metabolic Activation: RAT, LIVER, S-9, PCB, Method: PREINCUBATION
  mutagenic call: inactive; negative

## CCCCCCCCCCCCOCC1CO1 (stereo not given)
Strain/Indicator: TA97, Metabolic Activation: HAMSTER, LIVER, S-9, AROCLOR 1254 (10%), Method: PREINCUBATION
  mutagenic call: inactive; negative
Strain/Indicator: TA97, Metabolic Activation: HAMSTER, LIVER, S-9, AROCLOR 1254 (30%), Method: PREINCUBATION
  mutagenic call: inactive; negative
Strain/Indicator: TA97, Metabolic Activation: NONE, Method: PREINCUBATION
  mutagenic call: inactive; negative
Strain/Indicator: TA97, Metabolic Activation: RAT, LIVER, S-9, AROCLOR 1254 (10%), Method: PREINCUBATION
  mutagenic call: inactive; negative
Strain/Indicator: TA97, Metabolic Activation: RAT, LIVER, S-9, AROCLOR 1254 (30%), Method: PREINCUBATION
  mutagenic call: inactive; negative
Strain/Indicator: TA98, Metabolic Activation: HAMSTER, LIVER, S-9, AROCLOR 1254 (10%), Method: PREINCUBATION
  mutagenic call: inactive; negative
Strain/Indicator: TA98, Metabolic Activation: HAMSTER, LIVER, S-9, AROCLOR 1254 (30%), Method: PREINCUBATION
  mutagenic call: inactive; negative
[1]
  mutagenic call: inactive; negative
Strain/Indicator: TA98, Metabolic Activation: RAT, LIVER, S-9, AROCLOR 1254 (10% & 30%), Method: PREINCUBATION
  mutagenic call: inactive; negative
Strain/Indicator: TA100, Metabolic Activation: HAMSTER, LIVER, S-9, AROCLOR 1254 (10%), Method: PREINCUBATION
  mutagenic call: inactive; negative
Strain/Indicator: TA100, Metabolic Activation: HAMSTER, LIVER, S-9, AROCLOR 1254 (30%), Method: PREINCUBATION
  mutagenic call: inactive; negative
[2]
  mutagenic call: inactive; negative
Strain/Indicator: TA100, Metabolic Activation: RAT, LIVER, S-9, AROCLOR 1254 (10%), Method: PREINCUBATION
  mutagenic call: inactive; negative
Strain/Indicator: TA100, Metabolic Activation: RAT, LIVER, S-9, AROCLOR 1254 (30%), Method: PREINCUBATION
  mutagenic call: inactive; negative
Strain/Indicator: TA1535, Metabolic Activation: HAMSTER, LIVER, S-9, AROCLOR 1254 (10%), Method: PREINCUBATION
  mutagenic call: inactive; negative
Strain/Indicator: TA1535, Metabolic Activation: NONE, Method: PREINCUBATION
  mutagenic call: inactive; negative
Strain/Indicator: TA1535, Metabolic Activation: RAT, LIVER, S-9, AROCLOR 1254 (10%), Method: PREINCUBATION
  mutagenic call: inactive; negative
Strain/Indicator: TA1535, Metabolic Activation: RAT, LIVER, S-9, AROCLOR 1254 (30%), Method: PREINCUBATION
  mutagenic call: inactive; negative

## CC(O)Cc1cc(N)cc([N+](=O)[O-])c1N (stereo not given)
[3]
  mutagenic call: inactive; negative
Strain/Indicator: TA98, Metabolic Activation: RAT, LIVER, S-9, AROCLOR 1254, Method: STANDARD PLATE
  mutagenic call: inactive; negative
[4]
  mutagenic call: inactive; negative
Strain/Indicator: TA100, Metabolic Activation: RAT, LIVER, S-9, AROCLOR 1254, Method: STANDARD PLATE
  mutagenic call: inactive; negative
Strain/Indicator: TA1535, Metabolic Activation: NONE, Method: STANDARD PLATE
  mutagenic call: inactive; negative
Strain/Indicator: TA1535, Metabolic Activation: RAT, LIVER, S-9, AROCLOR 1254, Method: STANDARD PLATE
  mutagenic call: inactive; negative
Strain/Indicator: TA1537, Metabolic Activation: NONE, Method: STANDARD PLATE
  mutagenic call: inactive; negative
Strain/Indicator: TA1537, Metabolic Activation: RAT, LIVER, S-9, AROCLOR 1254, Method: STANDARD PLATE
  mutagenic call: inactive; negative
Strain/Indicator: TA1538, Metabolic Activation: NONE, Method: STANDARD PLATE
  mutagenic call: inactive; negative
Strain/Indicator: TA1538, Metabolic Activation: RAT, LIVER, S-9, AROCLOR 1254, Method: STANDARD PLATE
  mutagenic call: inactive; negative

## c1ccc2nc3c(cc2c1)-c1cccc2cccc-3c12
[3]
  mutagenic call: inactive; negative
Strain/Indicator: TA98, Metabolic Activation: RAT, LIVER, S-9, Method: STANDARD PLATE
  mutagenic call: inactive; negative
[4]
  mutagenic call: inactive; negative
Strain/Indicator: TA100, Metabolic Activation: RAT, LIVER, S-9, Method: STANDARD PLATE
  mutagenic call: inactive; negative
